For experiment [1], the target named is recombinant human FLAP protein (Homo sapiens (Human), UniProt P20292). Put plainly: FLAP binding assay (Scintillation Proximity Assay, displacement of iodinated FLAP inhibitor). Conditions: displacement of [125I]L-691,831; membranes of sf9 cells expressing recombinant human FLAP; read-out: hFLAP binding IC50. The protocol:
Compounds are assessed for the ability to bind to FLAP in a binding assay that measures compound-specific displacement of an iodinated (^125I) FLAP inhibitor via a Scintillation Proximity Assay format (adapted from S. Charleson et al., Mol. Pharmacol., 1992, 41, 873-879).
Cell pellets produced from sf9 insect cells expressing recombinant human FLAP protein are resuspended in buffer A [15 mM Tris-HCl (pH 7.5), 2 mM MgCl2, 0.3 mM EDTA, 1 mM PMSF]. The cells are lysed with a Dounce homogenizer and the material is centrifuged at 10,000×g for 10 minutes. The supernatant is then collected and centrifuged at 100,000×g for 60 minutes. To prepare membrane protein for an assay, an aliquot of the 100,000×g pellet is resuspended in 1 ml of buffer A, Dounce homogenized, and finally subjected to polytron mixing (30 seconds). Membrane protein (25 μl, 5 μg) is mixed with WGA SPA beads (Amersham) and stirred for 1 h. […] (final concentrations: beads, 200 μg/well; protein, 5 μg/well; [^125I] probe, 0 08 nM/well (17 nCi/well). The plates are shaken for 2 h before reading on a Microbeta plate reader. Non-specific binding is determined by the addition of 10 μM cold L-691,831 compound.
(Scintillation proximity formats need no separation of bound from free tracer.)

The subject of experiment [2] is synthesis of LTB4 in human whole blood. Put plainly: human whole blood LTB4 production inhibition assay. The class given is cell-based. Conditions: heparinized human whole blood, calcimycin 20 μM stimulation, plasma LTB4; read-out: hWB IC50. As for the experimental part: Compounds are additionally tested in a human whole blood assay to determine their ability to inhibit the synthesis of LTB4 in a cellular system. Compounds are combined with heparinized human whole blood and incubated for 15 minutes at 37° C. Calcimycin (20 μM final, prepared in phosphate-buffered saline, pH 7.4) is then added and the mixture is incubated for another 30 minutes at 37° C. The samples are centrifuged for 5 min at low speed (1500×g) and the plasma layer is removed. Plasma LTB4 concentrations are then measured using an antibody-based homogenous time-resolved fluorescence method (CisBio, Bedford, Mass.).

We go through 28 molecules from patent US8772304B2, “Benzimidazole inhibitors of leukotriene production” (Boehringer Ingelheim International GmbH, priority 2010, dated 2014).

Each structure is given as a SMILES string.

What is called IC50 is the concentration that gives 50% inhibition.

Chain of recombinant human FLAP protein (P20292 whole entry): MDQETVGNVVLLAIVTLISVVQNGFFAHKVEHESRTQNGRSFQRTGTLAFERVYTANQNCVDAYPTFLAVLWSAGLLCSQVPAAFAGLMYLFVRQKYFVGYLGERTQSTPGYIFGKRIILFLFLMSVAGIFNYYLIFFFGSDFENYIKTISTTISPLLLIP

For the molecule `Cc1ncnn1-c1ccc(C#N)nc1-c1nc2cc(-c3cnc(N)nc3)ccc2n1C(C)(C)C` [Example 3, 6-[5-(2-Amino-pyrimidin-5-yl)-1-tert-butyl-1H-benzimidazol-2-yl]-5-(5-methyl-1,2,4-triazol-1-yl)-pyridine-2-carbonitrile], the IC50 came to 5.9 nM in experiment [1] and 89 nM in experiment [2].
On to `Cc1ccc(-c2nc3cc(-c4cnc(N)nc4)ccc3n2C(C)(C)C)c(-n2cncn2)n1` [Example 28, 5-[1-tert-Butyl-2-(6-methyl-2-1,2,4-triazol-1-yl-pyridin-3-yl)-1H-benzimidazol-5-yl]-pyrimidin-2-ylamine], for which the figures for the IC50 in experiment [1] and in experiment [2] were 17 nM and 194 nM, respectively.
`COc1cncc(-c2nc3cc(-c4cnc(N)nc4)ccc3n2C(C)(C)C)c1` [Example 29, 5-[1-tert-Butyl-2-(5-methoxy-pyridin-3-yl)-1H-benzimidazol-5-yl]-pyrimidin-2-ylamine]: the concentration for half-maximal inhibition (IC50) in experiment [1] worked out at 300 nM.
For the molecule `Cc1ncnn1-c1ncccc1-c1nc2cc(-c3cnc(N)nc3)ccc2n1C(C)(C)C` [Example 24, 5-{1-tert-Butyl-2-[2-(5-methyl-1,2,4-triazol-1-yl)-pyridin-3-yl]-1H-benzimidazol-5-yl}-pyrimidin-2-ylamine], the 50% inhibitory concentration (IC50) in experiment [1] worked out at 23 nM; in experiment [2] it was 242 nM.
On to `CCC(C)(C)n1c(-c2cc(Br)cnc2-n2cncn2)nc2cc(-c3cnc(N)nc3)ccc21` [Example 27, 5-[2-(5-Bromo-2-1,2,4-triazol-1-yl-pyridin-3-yl)-1-(1,1-dimethyl-propyl)-1H-benzimidazol-5-yl]-pyrimidin-2-ylamine], for which the IC50 in experiment [1] was found to be 23 nM; in experiment [2], 667 nM.
`Cc1ncn(-c2ncccc2-c2nc3cc(-c4cnc(N)nc4)ccc3n2C(C)(C)C)n1` [Example 25, 5-{1-tert-Butyl-2-[2-(3-methyl-1,2,4-triazol-1-yl)-pyridin-3-yl]-1H-benzimidazol-5-yl}-pyrimidin-2-ylamine]: the results for the IC50 in experiment [1] and in experiment [2] were 12 nM and 278 nM, respectively.
`CC(C)(C)n1c(-c2cccnc2-n2cncn2)nc2cc(-c3cnc(N)nc3)ccc21` [Example 20, 5-[1-tert-Butyl-2-(2-1,2,4-triazol-1-yl-pyridin-3-yl)-1H-benzimidazol-5-yl]-pyrimidin-2-ylamine]: the half-inhibitory concentration (IC50) in experiment [1] stood at 19 nM; in experiment [2] it was 447 nM.
For `CCOc1ncccc1-c1nc2cc(-c3cnc(N)nc3)ccc2n1C(C)(C)C` [Example 33, 5-[1-tert-Butyl-2-(2-ethoxy-pyridin-3-yl)-1H-benzimidazol-5-yl]-pyrimidin-2-ylamine], in experiment [1], the IC50 turned out to be 34 nM.
With `Cc1ncn(-c2ccc(C#N)nc2-c2nc3cc(-c4cnc(N)nc4)ccc3n2C2(C)CCC2)n1` [Example 5, 6-[5-(2-Amino-pyrimidin-5-yl)-1-(1-methyl-cyclobutyl)-1H-benzimidazol-2-yl]-5-(3-methyl-1,2,4-triazol-1-yl)-pyridine-2-carbonitrile], the IC50 in experiment [1] was 29 nM; in experiment [2], 256 nM.
The like results for `CC(C)(C)n1c(-c2cc(Br)cnc2-n2cncn2)nc2cc(-c3cnc(N)nc3)ccc21` [Example 23, 5-[2-(5-Bromo-2-1,2,4-triazol-1-yl-pyridin-3-yl)-1-tert-butyl-1H-benzimidazol-5-yl]-pyrimidin-2-ylamine] were, in that order, 4 nM and 81 nM.
In the case of `CC(C)(C)n1c(-c2cccnc2)nc2cc(-c3cnc(N)nc3)ccc21` [Example 31, 5-(1-tert-Butyl-2-pyridin-3-yl-1H-benzimidazol-5-yl)-pyrimidin-2-ylamine], the IC50 in experiment [1] is 542 nM.
Turning to `CC(C)(C)n1c(-c2cccc(F)n2)nc2cc(-c3cnc(N)nc3)ccc21` [Example 14, 5-[1-tert-Butyl-2-(6-fluoro-pyridin-2-yl)-1H-benzimidazol-5-yl]-pyrimidin-2-ylamine], the IC50 in experiment [1] amounted to 279 nM.
For `COc1ncccc1-c1nc2cc(-c3cnc(N)nc3)ccc2n1C(C)(C)C` [Example 32, 5-[1-tert-Butyl-2-(2-methoxy-pyridin-3-yl)-1H-benzimidazol-5-yl]-pyrimidin-2-ylamine], the concentration for half-maximal inhibition (IC50) in experiment [1] stood at 220 nM.
In the case of `CC(C)(C)n1c(-c2cc(F)cnc2-n2cncn2)nc2cc(-c3cnc(N)nc3)ccc21` [Example 21, 5-[1-tert-Butyl-2-(5-fluoro-2-1,2,4-triazol-1-yl-pyridin-3-yl)-1H-benzimidazol-5-yl]-pyrimidin-2-ylamine], the values for the IC50 in experiment [1] and in experiment [2] were 20 nM and 253 nM, respectively.
For the molecule `COC(=O)c1ccc(C#N)nc1-c1nc2cc(-c3cnc(N)nc3)ccc2n1C(C)(C)C` [Example 9, 2-[5-(2-Amino-pyrimidin-5-yl)-1-tert-butyl-1H-benzimidazol-2-yl]-6-cyano-nicotinic acid methyl ester], the IC50 in experiment [1] came out at 110 nM; in experiment [2], 387 nM.
Regarding `CC(C)(C)n1c(-c2cc(Cl)cnc2-n2cncn2)nc2cc(-c3cnc(N)nc3)ccc21` [Example 22, 5-[1-tert-Butyl-2-(5-chloro-2-1,2,4-triazol-1-yl-pyridin-3-yl)-1H-benzimidazol-5-yl]-pyrimidin-2-ylamine], the results for the IC50 in experiment [1] and in experiment [2] were 3.2 nM and 116 nM, respectively.
With `CC(C)(C)n1c(-c2ccc(N3CCOCC3)nc2)nc2cc(-c3cnc(N)nc3)ccc21` [Example 30, 5-[1-tert-Butyl-2-(6-morpholin-4-yl-pyridin-3-yl)-1H-benzimidazol-5-yl]-pyrimidin-2-ylamine], the IC50 in experiment [1] was 180 nM.
As for `CC(C)(C)n1c(-c2nc(C#N)ccc2-n2cncn2)nc2cc(-c3cnc(N)nc3)ccc21` [Example 1, 6-[5-(2-Amino-pyrimidin-5-yl)-1-tert-butyl-1H-benzimidazol-2-yl]-5-1,2,4-triazol-1-yl-pyridine-2-carbonitrile], the IC50 in experiment [1] was found to be 7.1 nM; in experiment [2], 30 nM.
With `CC(C)(C)n1c(-c2nc(C3CC3)ccc2-n2cncn2)nc2cc(-c3cnc(N)nc3)ccc21` [Example 4, 5-[1-tert-Butyl-2-(6-cyclopropyl-3-1,2,4-triazol-1-yl-pyridin-2-yl)-1H-benzimidazol-5-yl]-pyrimidin-2-ylamine], the IC50 in experiment [1] is 13 nM; in experiment [2], 140 nM.
With `CC(C)(C)Oc1cccc(-c2nc3cc(-c4cnc(N)nc4)ccc3n2C(C)(C)C)n1` [Example 13, 5-[2-(6-tert-Butoxy-pyridin-2-yl)-1-tert-butyl-1H-benzimidazol-5-yl]-pyrimidin-2-ylamine], the IC50 in experiment [1] is 51 nM.
For `CC(C)(C)n1c(-c2cccc(F)n2)nc2cc(-c3cnc(NCc4cccc(F)n4)nc3)ccc21` [Example 15, {5-[1-tert-Butyl-2-(6-fluoro-pyridin-2-yl)-1H-benzimidazol-5-yl]-pyrimidin-2-yl}-(6-fluoro-pyridin-2-ylmethyl)-amine], the IC50 in experiment [1] is 870 nM.
Take `Cc1ncn(-c2ccc(C#N)nc2-c2nc3cc(-c4cnc(N)nc4)ccc3n2C(C)(C)C)n1` [Example 2, 6-[5-(2-Amino-pyrimidin-5-yl)-1-tert-butyl-1H-benzimidazol-2-yl]-5-(3-methyl-1,2,4-triazol-1-yl)-pyridine-2-carbonitrile]: the results for the IC50 in experiment [1] and in experiment [2] were 4.2 nM and 36 nM, respectively.
For `CNC(=O)c1cccnc1-c1nc2cc(-c3cnc(N)nc3)ccc2n1C(C)(C)C` [Example 8, 2-[5-(2-Amino-pyrimidin-5-yl)-1-tert-butyl-1H-benzimidazol-2-yl]-N-methyl-nicotinamide], the IC50 in experiment [1] is 620 nM; in experiment [2] it was 1700 nM.
For `Cc1ncnn1-c1ccc(C#N)nc1-c1nc2cc(-c3cnc(N)nc3)ccc2n1C1(C)CCC1` [Example 6, 6-[5-(2-Amino-pyrimidin-5-yl)-1-(1-methyl-cyclobutyl)-1H-benzimidazol-2-yl]-5-(5-methyl-1,2,4-triazol-1-yl)-pyridine-2-carbonitrile] the same measures were 86 nM and 894 nM.
Take `COc1cccc(-c2nc3cc(-c4cnc(N)nc4)ccc3n2C(C)(C)C)n1` [Example 11, 5-[1-tert-Butyl-2-(6-methoxy-pyridin-2-yl)-1H-benzimidazol-5-yl]-pyrimidin-2-ylamine]: the IC50 in experiment [1] is 46 nM.
Take `CC(C)(C)n1c(-c2cc(C#N)cnc2-n2cncn2)nc2cc(-c3cnc(N)nc3)ccc21` [Example 26, 5-[5-(2-Amino-pyrimidin-5-yl)-1-tert-butyl-1H-benzimidazol-2-yl]-6-1,2,4-triazol-1-yl-nicotinonitrile]: the values for the IC50 in experiment [1] and in experiment [2] were 10 nM and 75 nM, respectively.
Regarding `COc1cccnc1-c1nc2cc(-c3cnc(N)nc3)ccc2n1C(C)(C)C` [Example 16, 5-[1-tert-Butyl-2-(3-methoxy-pyridin-2-yl)-1H-benzimidazol-5-yl]-pyrimidin-2-ylamine], the IC50 in experiment [1] is 960 nM.
Regarding `CC(C)(C)n1c(-c2ccccn2)nc2cc(-c3cnc(N)nc3)ccc21` [Example 12, 5-(1-tert-Butyl-2-pyridin-2-yl-1H-benzimidazol-5-yl)-pyrimidin-2-ylamine], the IC50 in experiment [1] was 700 nM.
